Source: PubChem BioAssay AID1259407 (Chemical Carcinogenesis Research Information System (CCRIS), 2018)
The source made the active and inactive calls. The rule behind the calls is not given here.

System: CCRIS mutagenicity, Ames/micronucleus/aberration tests
Assay: CCRIS mutagenicity studies
[1] = Test System: AMES SALMONELLA TYPHIMURIUM, Strain/Indicator: TA97, Metabolic Activation: NONE, Method: PREINCUBATION
[2] = Test System: AMES SALMONELLA TYPHIMURIUM, Strain/Indicator: TA98, Metabolic Activation: NONE, Method: PREINCUBATION
[3] = Test System: AMES SALMONELLA TYPHIMURIUM, Strain/Indicator: TA100, Metabolic Activation: NONE, Method: PREINCUBATION
[4] = Test System: AMES SALMONELLA TYPHIMURIUM, Strain/Indicator: TA102, Metabolic Activation: NONE, Method: PREINCUBATION

Question: What does the source list for `COC(F)(F)C(Cl)Cl`?
Answer: mutagenic call (Test System: AMES SALMONELLA TYPHIMURIUM, Strain/Indicator: TA97, Metabolic Activation: HAMSTER, LIVER, S-9, AROCLOR 1254 (10 OR 30%), Method: PREINCUBATION): inactive; negative; mutagenic call [1]: inactive; negative; mutagenic call (Test System: AMES SALMONELLA TYPHIMURIUM, Strain/Indicator: TA97, Metabolic Activation: RAT, LIVER, S-9, AROCLOR 1254 (10 OR 30%), Method: PREINCUBATION): inactive; negative; mutagenic call (Test System: AMES SALMONELLA TYPHIMURIUM, Strain/Indicator: TA98, Metabolic Activation: HAMSTER, LIVER, S-9, AROCLOR 1254 (10 OR 30%), Method: PREINCUBATION): inactive; negative; mutagenic call (Test System: AMES SALMONELLA TYPHIMURIUM, Strain/Indicator: TA98, Metabolic Activation: HAMSTER, LIVER, S-9, AROCLOR 1254 (30%), Method: DESICCATOR): inactive; negative; mutagenic call (Test System: AMES SALMONELLA TYPHIMURIUM, Strain/Indicator: TA98, Metabolic Activation: NONE, Method: DESICCATOR): inactive; negative; mutagenic call [2]: inactive; negative; mutagenic call (Test System: AMES SALMONELLA TYPHIMURIUM, Strain/Indicator: TA98, Metabolic Activation: RAT, LIVER, S-9, AROCLOR 1254 (10 OR 30%), Method: PREINCUBATION): inactive; negative; mutagenic call (Test System: AMES SALMONELLA TYPHIMURIUM, Strain/Indicator: TA98, Metabolic Activation: RAT, LIVER, S-9, AROCLOR 1254 (30%), Method: DESICCATOR): inactive; negative; mutagenic call (Test System: AMES SALMONELLA TYPHIMURIUM, Strain/Indicator: TA100, Metabolic Activation: HAMSTER, LIVER, S-9, AROCLOR 1254 (10 OR 30%), Method: PREINCUBATION): inactive; negative; mutagenic call (Test System: AMES SALMONELLA TYPHIMURIUM, Strain/Indicator: TA100, Metabolic Activation: HAMSTER, LIVER, S-9, AROCLOR 1254 (30%), Method: DESICCATOR): inactive; negative; mutagenic call (Test System: AMES SALMONELLA TYPHIMURIUM, Strain/Indicator: TA100, Metabolic Activation: NONE, Method: DESICCATOR): inactive; negative; mutagenic call [3]: inactive; negative; mutagenic call (Test System: AMES SALMONELLA TYPHIMURIUM, Strain/Indicator: TA100, Metabolic Activation: RAT, LIVER, S-9, AROCLOR 1254 (10 OR 30%), Method: PREINCUBATION): inactive; negative; mutagenic call (Test System: AMES SALMONELLA TYPHIMURIUM, Strain/Indicator: TA100, Metabolic Activation: RAT, LIVER, S-9, AROCLOR 1254 (30%), Method: DESICCATOR): inactive; negative; mutagenic call (Test System: AMES SALMONELLA TYPHIMURIUM, Strain/Indicator: TA1535, Metabolic Activation: HAMSTER, LIVER, S-9, AROCLOR 1254 (10 OR 30%), Method: PREINCUBATION): inactive; negative; mutagenic call (Test System: AMES SALMONELLA TYPHIMURIUM, Strain/Indicator: TA1535, Metabolic Activation: NONE, Method: PREINCUBATION): inactive; negative; mutagenic call (Test System: AMES SALMONELLA TYPHIMURIUM, Strain/Indicator: TA1535, Metabolic Activation: RAT, LIVER, S-9, AROCLOR 1254 (10 OR 30%), Method: PREINCUBATION): inactive; negative

Question: How did the mutagenic call [1] turn out when `CC(C)CCOC(=O)CC(C)C` was run?
Answer: Its mutagenic call is “inactive; negative”.

Question: What about the mutagenic call (Test System: AMES SALMONELLA TYPHIMURIUM, Strain/Indicator: TA97, Metabolic Activation: RAT, LIVER, S-9, AROCLOR 1254, Method: PREINCUBATION) of the same compound?
Answer: The mutagenic call was “inactive; negative”.

Question: And the mutagenic call [4]?
Answer: The mutagenic call was “inactive; negative”.

Question: And the mutagenic call (Test System: AMES SALMONELLA TYPHIMURIUM, Strain/Indicator: TA102, Metabolic Activation: RAT, LIVER, S-9, AROCLOR 1254, Method: PREINCUBATION)?
Answer: The mutagenic call was “inactive; negative”.

Question: For `CCC/C=C/C(=O)O[C@@H]1C(C)(C)C[C@@H]2C34CC3(C(C=O)=C[C@]12O)[C@@H](O)OC4=O` (some centres undefined), which mutagenic call (Test System: AMES SALMONELLA TYPHIMURIUM, Strain/Indicator: TA98, Metabolic Activation: NONE, Method: SPOT TEST) is on record?
Answer: The mutagenic call was “active; positive”.

Question: And the mutagenic call (Test System: AMES SALMONELLA TYPHIMURIUM, Strain/Indicator: TA98, Metabolic Activation: NONE, Method: STANDARD PLATE)?
Answer: The mutagenic call was “active; positive”.

Question: What about the mutagenic call (Test System: AMES SALMONELLA TYPHIMURIUM, Strain/Indicator: TA100, Metabolic Activation: NONE, Method: SPOT TEST) of the same compound?
Answer: The mutagenic call was “inactive; negative”.

Question: What about the mutagenic call (Test System: AMES SALMONELLA TYPHIMURIUM, Strain/Indicator: TA100, Metabolic Activation: NONE, Method: STANDARD PLATE) of the same compound?
Answer: Its mutagenic call is “active; positive”.

Question: What about the mutagenic call (Test System: AMES SALMONELLA TYPHIMURIUM, Strain/Indicator: TA1535, Metabolic Activation: NONE, Method: SPOT TEST) of the same compound?
Answer: Its mutagenic call is “inactive; negative”.

Question: And the mutagenic call (Test System: AMES SALMONELLA TYPHIMURIUM, Strain/Indicator: TA1538, Metabolic Activation: NONE, Method: SPOT TEST)?
Answer: Its mutagenic call is “inactive; negative”.

Question: What about the mutagenic call (Test System: AMES SALMONELLA TYPHIMURIUM, Strain/Indicator: TA2637, Metabolic Activation: NONE, Method: STANDARD PLATE) of the same compound?
Answer: Its mutagenic call is “active; positive”.

Question: With `c1ccc2c(c1)ccc1nc3c(ccc4ccccc43)cc12` as the compound, how does the mutagenic call (Test System: AMES SALMONELLA TYPHIMURIUM, Strain/Indicator: TA100, Metabolic Activation: RAT, LIVER, S-9, PHENOBARBITAL AND 5,6-BENZOFLAVONE, Method: STANDARD PLATE) read?
Answer: The mutagenic call was “active; positive”.

Question: How did the mutagenic call [2] turn out when `CCCC[N+](=O)[O-]` was run?
Answer: The mutagenic call was “inactive; negative”.

Question: And the mutagenic call (Test System: AMES SALMONELLA TYPHIMURIUM, Strain/Indicator: TA98, Metabolic Activation: RAT, LIVER, S-9, AROCLOR, Method: PREINCUBATION)?
Answer: The mutagenic call was “inactive; negative”.

Question: What about the mutagenic call (Test System: AMES SALMONELLA TYPHIMURIUM, Strain/Indicator: TA98, Metabolic Activation: RAT, LIVER, S-9, KANECHLOR 500, Method: PREINCUBATION) of the same compound?
Answer: The mutagenic call was “inactive; negative”.

Question: What about the mutagenic call [3] of the same compound?
Answer: The mutagenic call was “inactive; negative”.

Question: And the mutagenic call (Test System: AMES SALMONELLA TYPHIMURIUM, Strain/Indicator: TA100, Metabolic Activation: RAT, LIVER, S-9, AROCLOR, Method: PREINCUBATION)?
Answer: Its mutagenic call is “inactive; negative”.

Question: And the mutagenic call (Test System: AMES SALMONELLA TYPHIMURIUM, Strain/Indicator: TA100, Metabolic Activation: RAT, LIVER, S-9, KANECHLOR 500, Method: PREINCUBATION)?
Answer: Its mutagenic call is “inactive; negative”.

Question: What about the mutagenic call [4] of the same compound?
Answer: The mutagenic call was “inactive; negative”.

Question: And the mutagenic call (Test System: AMES SALMONELLA TYPHIMURIUM, Strain/Indicator: TA102, Metabolic Activation: RAT, LIVER, S-9, AROCLOR, Method: PREINCUBATION)?
Answer: Its mutagenic call is “inactive; negative”.

Question: What about the mutagenic call (Test System: E. COLI, Strain/Indicator: WP2 UVRA (PKM101), Metabolic Activation: NONE, Method: PREINCUBATION) of the same compound?
Answer: The mutagenic call was “inactive; negative”.

Question: And the mutagenic call (Test System: E. COLI, Strain/Indicator: WP2 UVRA (PKM101), Metabolic Activation: RAT, LIVER, S-9, KANECHLOR 500, Method: PREINCUBATION)?
Answer: Its mutagenic call is “inactive; negative”.

Question: What about the mutagenic call (Test System: UDS RAT HEPATOCYTES, Strain/Indicator: THY INCORP, Metabolic Activation: NONE) of the same compound?
Answer: The mutagenic call was “inactive; negative”.

Question: Which results are given for `C[C@]12CC[C@@H]3c4ccc(O)cc4CC[C@H]3[C@@H]1CCC2=O`?
Answer: mutagenic call (End Point: IN VITRO CHROMOSOMAL ABERRATIONS, Test System: CHO CELLS, Metabolic Activation: NONE): active; positive; mutagenic call (End Point: IN VITRO MICRONUCLEUS, Test System: MCF-7 (HUMAN MAMMARY CARCINOMA), Metabolic Activation: NONE): active; positive; mutagenic call (Test System: UDS RAT HEPATOCYTES, Strain/Indicator: THY INCORP (18-20 HR), Metabolic Activation: NONE, Method: LIQUID SCINTILLATION COUNTING): inactive; negative
